Experiments:
Experiment in all cases: relative viability (nuclei count vs DMSO), 5 days (fraction); higher = more cells survive
IDH-C35 + Pemetrexed = compound: Cc1ccccc1C(C(=O)NC1CCCCC1)N(C(=O)Cn1ccnc1C)c1cccc(F)c1 [IDH-C35] + Nc1nc2[nH]cc(CCc3ccc(C(=O)N[C@@H](CCC(=O)O)C(=O)O)cc3)c2c(=O)[nH]1 [Pemetrexed] (partner 0.2 µM)
Summary of the method: (§1)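 Lung cancer cell lines in 1536-well plates were dosed by pin tool the day after seeding, either with one drug alone or with a fixed anchor-drug dose plus five library-drug doses (not always all listed) in √10 steps. After 5 days, cells were fixed and their nuclei stained in one step (final 0.05% Triton X-100, 1% formaldehyde, 1 ug/ml Hoechst), then counted on 4× images. Relative viability is the nuclei count in treated wells divided by that in vehicle wells. Values are medians of duplicate plates.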

IDH-C35 + Trametinib = compound: Cc1ccccc1C(C(=O)NC1CCCCC1)N(C(=O)Cn1ccnc1C)c1cccc(F)c1 [IDH-C35] + CC(=O)Nc1cccc(-n2c(=O)n(C3CC3)c(=O)c3c(Nc4ccc(I)cc4F)n(C)c(=O)c(C)c32)c1 [Trametinib] (partner 0.02 µM)
Summary of the method: as §1

[1] = compound: CC1=C(C(=NN1)C)CC2=C(C3=C(S2)N(C(=O)N(C3=O)C)CC(C)C)C(=O)N4C[C@@H](CO4)O + Nc1nc2[nH]cc(CCc3ccc(C(=O)N[C@@H](CCC(=O)O)C(=O)O)cc3)c2c(=O)[nH]1 [Pemetrexed] (partner 0.2 µM)
Summary of the method: as §1

IDH-C35 + Foretinib = compound: Cc1ccccc1C(C(=O)NC1CCCCC1)N(C(=O)Cn1ccnc1C)c1cccc(F)c1 [IDH-C35] + COc1cc2c(Oc3ccc(NC(=O)C4(C(=O)Nc5ccc(F)cc5)CC4)cc3F)ccnc2cc1OCCCN1CCOCC1 [Foretinib] (partner 0.25 µM)
Summary of the method: as §1

| Cell Line | relative viability (IDH-C35 + Pemetrexed; first compound 0.08 µM) | relative viability (IDH-C35 + Pemetrexed; first compound 0.253 µM) | relative viability (IDH-C35 + Pemetrexed; first compound 0.8 µM) | relative viability (IDH-C35 + Pemetrexed; first compound 2.53 µM) | relative viability (IDH-C35 + Pemetrexed; first compound 8 µM) | relative viability (IDH-C35 + Trametinib; first compound 0.08 µM) | relative viability (IDH-C35 + Trametinib; first compound 0.253 µM) | relative viability (IDH-C35 + Trametinib; first compound 0.8 µM) | relative viability (IDH-C35 + Trametinib; first compound 2.53 µM) | relative viability (IDH-C35 + Trametinib; first compound 8 µM) | relative viability ([1]; first compound 0.0025 µM) | relative viability ([1]; first compound 0.007906 µM) | relative viability ([1]; first compound 0.025 µM) | relative viability ([1]; first compound 0.07906 µM) | relative viability ([1]; first compound 0.25 µM) | relative viability (IDH-C35 + Foretinib; first compound 0.08 µM) | relative viability (IDH-C35 + Foretinib; first compound 0.253 µM) | relative viability (IDH-C35 + Foretinib; first compound 0.8 µM) | relative viability (IDH-C35 + Foretinib; first compound 8 µM) | relative viability (IDH-C35 + Foretinib; first compound 2.53 µM) |
| --- | --- | --- | --- | --- | --- | --- | --- | --- | --- | --- | --- | --- | --- | --- | --- | --- | --- | --- | --- | --- |
| NCI-H522 | 0.874 | 1.04 | 0.818 | 0.793 | 1.05 | 0.767 | 0.8 | 0.643 | 0.796 | 0.695 | 1.14 | 1.37 | 0.98 | 0.54 | 0.643 | – | – | – | – | – |
| HCC-15 | 0.206 | 0.235 | 0.223 | 0.226 | 0.227 | 0.37 | 0.395 | 0.428 | – | 0.371 | 0.214 | 0.214 | 0.225 | 0.215 | 0.211 | 1.07 | 0.974 | 0.938 | 0.869 | – |
| A-427 | 0.952 | 0.981 | 0.899 | 1.02 | 1.04 | 0.791 | 0.784 | 0.77 | 0.722 | 0.705 | 1 | 1.07 | 0.935 | 0.906 | 0.983 | 1.01 | 1 | 0.967 | 0.944 | 0.903 |
| NCI-H2228 | 0.307 | 0.336 | 0.332 | 0.328 | 0.3 | 0.456 | 0.559 | 0.458 | 0.836 | 0.546 | 0.317 | 0.342 | 0.339 | 0.322 | 0.324 | 0.939 | 0.814 | 0.973 | 0.667 | 0.853 |
| NCI-H1734 | 0.432 | 0.423 | 0.443 | 0.413 | 0.409 | 0.656 | 0.811 | 0.603 | 0.661 | 0.616 | 0.412 | 0.426 | 0.436 | 0.467 | 0.423 | 0.799 | 0.913 | 0.936 | 0.774 | 0.796 |
| PC-14 | 0.127 | 0.135 | 0.152 | 0.154 | 0.133 | 0.645 | 0.695 | 0.735 | 0.768 | 0.705 | 0.158 | 0.126 | 0.155 | 0.122 | 0.121 | 1.03 | 0.909 | 0.978 | 0.889 | 0.988 |
| NCI-H1915 | 0.555 | 0.475 | 0.508 | 0.54 | 0.461 | 0.316 | 0.315 | 0.275 | 0.278 | 0.276 | 0.497 | 0.465 | 0.466 | 0.497 | 0.53 | 1.07 | 1.13 | 1.07 | 1.07 | 1.05 |
| NCI-H1666 | 0.881 | 0.825 | 0.822 | 0.874 | 0.718 | 0.813 | 0.854 | 0.902 | 0.799 | 0.876 | 0.886 | 0.925 | 0.857 | 0.906 | 0.866 | 1.05 | 0.92 | 0.982 | 0.848 | 1.01 |
| HCC-366 | 0.143 | 0.156 | 0.171 | 0.188 | 0.176 | 0.293 | 0.376 | 0.407 | 0.303 | 0.31 | 0.178 | 0.191 | 0.133 | 0.172 | 0.181 | 0.986 | 0.981 | 0.937 | 0.938 | – |
| SK-MES-1 | 0.91 | 0.988 | 0.925 | 0.861 | 0.874 | 0.513 | 0.6 | 0.581 | 0.567 | 0.45 | 1.08 | 0.988 | 0.857 | 0.967 | 0.988 | 0.983 | 0.955 | 0.897 | 0.756 | 0.971 |
| SW 1573 | 0.692 | 0.889 | 0.879 | 0.789 | 0.763 | 0.491 | 0.793 | 0.531 | 0.571 | 0.518 | 0.759 | 1.05 | 0.773 | 0.853 | 0.981 | 1.18 | 0.873 | 0.915 | 0.928 | 0.933 |
| NCI-H661 | 0.95 | 0.948 | 0.893 | 0.901 | 0.879 | 0.592 | 0.575 | 0.548 | 0.557 | 0.561 | 0.922 | 0.973 | 0.899 | 0.924 | 0.899 | 1.03 | 0.964 | 0.981 | 1.03 | 0.988 |
| PC-3 [JPC-3] | 1.05 | 1.06 | 1.17 | 1.29 | 1.21 | 0.65 | 0.745 | 0.725 | 0.758 | 0.67 | 1.11 | 1.03 | 1.01 | 1.27 | 0.834 | 1 | 1.01 | 1.05 | 0.982 | 1.11 |
| NCI-H1623 | – | – | – | – | – | – | – | – | – | – | – | – | – | – | – | 0.91 | 0.854 | 0.811 | 0.861 | 0.896 |
